Entries after “also recorded” stand apart in the source; their conditions may differ. Read-outs that look alike come from different tables or passages of the source.
What was measured:
[1] = tested on: Beagle Dog; experiment: Subacute toxicity screening of two forms of HHT in one dog; format: in vivo; settings: for Clinical examination: clinical signs: single subcutaneous injection (hydrochloride day 5, base day 11); for Tolerance (toxicology conclusion): one dog, CIVI 48 hours or subcutaneous injection
Experimental: Species/Strain: Beagle Dog […]
treatment 1: Intravenous infusion (IV)
Treatments 2 and 3: subcutaneous injection (SQ) […]
treatment 1: continuous Intravenous infusion (CIVI) for 48 hours (days 1 and 2) treatment 2: single subcutaneous (SQ) injection on day 5 treatment 3: single subcutaneous (SQ) injection on day 11
Duration of treatment: see § administration/day […]
treatments 1 and 2: sterile isotonic saline solution

[2] = dog, in vivo, sc
Experimental: (§1) Comparative Pharmacokinetic Study in Dogs After Subcutaneous Injection of 5 mg/m2 of Hydrochloride and Base Forms of HHT
(§2) Number of animals/sex/dose: the same dog was used for each treatment
(§3) treatment 1: 0.25 mg/kg of substance A (HHT-hydrochloride form)
(§4) treatment 2: 0.25 mg/kg of substance A (HHT-hydrochloride form)
(§5) treatment 3: 0.25 mg/kg of substance B (HHT-base form)
(§6) Treatment 3: aqueous solution in 0.5% hydroxyethylcellulose with 0.1% Tween 80
(§7) Analytical method: HPLC with flourimetric detection
(§8) Blood samples were collected at time 0, 30, 60, 120, 240, 480 minutes and 24 hours then HHT concentration was determined in plasma by an HPLC method in using a fluorimetric detection.

[3] = tested on: patient with acute myeloid leukemia / blastic phase of chronic myelogenous leukemia
Experimental: In addition, this patient was not eligible for bone marrow transplantation. All current good clinical practices and applicable ethical rules were applied. […] Physicians of this institution were experienced with the clinical use of the same formulation by intravenous mode of administration in patients with myeloid leukemias. […] A 5 mg-vial of lyophilized HHT hydrochloride for injection was reconstituted with 2.5 mL of saline water for injection. A volume corresponding to 1 mg of HHT per square meter of body surface area per day divided In two daily subcutaneous injections (2 subcutaneous injections a day) was administered in a short single injection, during a period of nine (9) consecutive days.

[4] = Comparative pharmacokinetic study in dogs after subcutaneous injection of hydrochloride and base forms of HHT; settings: dog, 0.25 mg/kg single subcutaneous injection
Experimental: as §1, §2, §3, §4, §5, §6, §7, §8

[5] = tested on: patients; settings: continuous infusion 2.5 mg/m2 daily for 10 to 14 days; cited from earlier work

COC(=O)C[C@](O)(CCCC(C)(C)O)C(=O)O[C@@H]1C(OC)=C[C@]23CCCN2CCc2cc4c(cc2[C@H]13)OCO4.Cl [HHT hydrochloride]
Body weight loss ([1]; after treatment 1: 0.25 mg/kg continuous intravenous infusion 48 hours): 1.1 kg | Body weight loss ([1]; after treatment 2: 0.25 mg/kg single subcutaneous injection on day 5): 0.4 kg | Local tolerance, microscopic examination (histopathology) of skin biopsy ([1]; biopsy taken on day 6, the day after the SQ injection, 0.25 mg/kg): well tolerated at the local level | Clinical signs following CIVI ([1]; one Beagle dog, 0.25 mg/kg, continuous intravenous infusion for 48 hours): No clinical signs | Clinical examination: clinical signs ([1]; one Beagle dog, 0.25 mg/kg): yellowish vomiting, soft feces, transient decrease in activity and hypersalivation | Tolerance (toxicology conclusion) ([1]; 0.25 mg/kg): good tolerance | Bioavailability of salt form versus base form [2]: considerably higher (triple) | Area under the curve (AUC) ([2]; 0.25 mg/kg): 280 ng·h/mL | Calculated rate AUC HHT-hydrochloride/AUC HHT-base ([2]; 0.25 mg/kg): 3.24 | Maximum of concentration in plasma ([2]; 0.25 mg/kg): 112 ng/mL | Time of maximum of concentration ([2]; 0.25 mg/kg): 2 h | Local tolerance at the points of injection ([3]; human, in vivo): no local sign of intolerance | Granulocyte count (peripheral blood counts) ([3]; patient #01, SQ 1 mg/m2/day, 9 days): relatively fast decrease | Myelosuppressive effect, post-induction follow-up ([3]; patient #01, SQ 1 mg/m2/day, typical of intravenous HHT 2.5 mg/m2/day): strong myelosuppressive effect | Clinical improvements compared with examples 3 and 4 ([3]; patient #03, acute myeloid leukemia): Same clinical improvements as those seen in example 3 and 4

COC(=O)C[C@](O)(CCCC(C)(C)O)C(=O)O[C@@H]1C(OC)=C[C@]23CCCN2CCc2cc4c(cc2[C@H]13)OCO4 [HHT-base, reference compound]
Clinical examination: clinical signs ([1]; one Beagle dog, 0.25 mg/kg, 0.25 mg/kg): liquid feces with presence of blood, hypersalivation, decrease in activity, pallor of gingival mucous membranes and decrease in activity; also recorded: liquid feces, hypersalivation, decrease in activity and pallor of gingival mucous membrane | Tolerance (toxicology conclusion) ([1]; 0.25 mg/kg): good tolerance | Mortality, time after the beginning of the treatment ([1]; second subcutaneous injection, 0.25 mg/kg, day 11, same dog after earlier treatments): 8 h | Area under the curve (AUC) [4]: 86.5 ng·h/mL | Maximum of concentration in plasma [4]: 18 ng/mL | Time of maximum of concentration [4]: 0.5 h

COC(=O)C[C@](O)(CCCC(C)(C)O)C(=O)O[C@@H]1C(OC)=C[C@]23CCCN2CCc2cc4c(cc2[C@H]13)OCO4 [HHT, homoharringtonine]
Cardiovascular complications including hypotensive events and arrythmias, patients affected [5]: less than 5 % of patients

Source: US20020128258A1, “Therapeutical method involving subcutaneous administration of drugs containing cephalotaxine derivatives” (priority 2001, published 2002)
